Experimental data: US4725578A, “Compounds having therapeutic effect and the preparation thereof” (Tobishi Pharmaceutical Co., Ltd., priority 1986, dated 1988)
Entries after “also recorded” stand apart in the source; their conditions may differ.

What was measured:
[1] = system: L-1210 cells; assay: Antineoplastic action against implanted L-1210 cells (ip-ip), survival T/C; assay type: in vivo, CDFl mice
Experimental: In this animal test, the antineoplastic action against the implanted tumor was examined in lower animals, in vivo, in respect of the compounds according to the present invention, by using CDFl mice.
To the peritoneal cavity of each group of mice consisting of six CDFl mice per group, 10^6 /0.1 ml of P-388 cells or 10^5 /0.1 ml of L-1210 cells were implanted. […] While to the control groups of CDFl mice, P-388 and L-1210 cells were implanted in the same manner and they were bred without administration of the compounds.
(§1) In the Table, the symbol T/C % means Treatment/Control %, that is the increase in life when the control is 100. The values are obtained by implanting tumor cells to groups of mice (or rats), administering the compound being tested in various amounts every 24 hours after the implantation of the tumor cells and then calculating the ratio, the median survival time of the group to which the compound has been administered to the survival of the control, multiplied by a factor of 100. This method is used in the screening of U.S. National Cancer Institute.
(§2) In Table 7, the symbol "i.P.-i.P." means that the tumor cells are implanted intraperitoneally and the compounds being tested are also administered intraperitoneally. The symbol "TR" is the therapeutic ratio obtained by dividing the dose which provides a maximum T/C value, by the dose which provides a minimum T/C value.

[2] = system: C-1498; assay: C-1498 (ip-ip), survival T/C; assay type: in vivo
Experimental: as §1

[3] = system: Erlich carcinoma; assay: Erlich carcinoma (sc-ip), inhibition; assay type: in vivo
[4] = system: Yoshida sarcoma; assay: Yoshida sarcoma (ip-iv), survival T/C; assay type: in vivo
Experimental: as §1
(§3) In Table 9, "iv" and "sc" means that the administration of the compounds is carried out intravenously and the implantation of the tumor cells is carried out subcutaneously.

[5] = system: MM2; assay: MM2 (ip-ip), survival T/C; assay type: in vivo, mice
Experimental: as §1, with “Institute. […]” for “Institute.”
as §2
The term in Table 7, last column "3/6 60<", means that 3 mice out of 6 mice continue to live more than 60 days after the implantation of the tumor cells.

[6] = system: Yoshida sarcoma; assay: Yoshida sarcoma (ip-ip), survival T/C; assay type: in vivo
Experimental: as §1

[7] = system: Lewis Lung Carcinoma; assay: Lewis Lung Carcinoma (sc-ip), inhibition; assay type: in vivo
[8] = system: P-388 cells; assay: Antineoplastic action against implanted P-388 cells (ip-ip), survival T/C; assay type: in vivo, CDFl mice; conditions: for T/C: P 388 (ip-ip), × 5; for T/C % (Treatment/Control %): Table 6, P388, intraperitoneal
Experimental: To the peritoneal cavity of each group of mice consisting of six CDFl mice per group, 10^6 /0.1 ml of P-388 cells or 10^5 /0.1 ml of L-1210 cells were implanted. […]
In the Table, the symbol T/C % means Treatment/Control %, that is the increase in life when the control is 100. […] This method is used in the screening of U.S. National Cancer Institute.
as §2

[9] = system: MOPC-104E; assay: MOPC-104E (ip-ip), survival T/C; assay type: in vivo
Experimental: as §1

[10] = system: P 388; assay: P 388 (ip-iv), survival T/C; assay type: in vivo, mice
Experimental: as §1, §3

[11] = system: B-16 melanoma; assay: B16 melanoma (ip-ip), survival T/C; assay type: in vivo, mice
Experimental: as §1, with “Institute. […]” for “Institute.”
as §2

[12] = system: Colon. 38; assay: Colon. 38 (sc-ip), inhibition; assay type: in vivo; conditions: 4 mg/kg × 11, after 17 days
[13] = Toxicity test, lethal dose (Litchfield-Wilcoxon); assay type: in vivo, male 4-weeks CD-1 (ICR) mice; conditions: suspension in 0.5% CMC, 7 days observation
Experimental: With respect to the compounds of this invention, the lethal dose was determined as follows.
By using male 4-weeks CD-1 (ICR) mice consisting of 5 to 10 mice per group, the desired amount of each compound of this invention was suspended in 0.5% CMC solution and the resultant suspension was administered to each mouse intraperitoneally or intravenously. Observing the life or death as well as the general symptome during 7 days after the administration of the compounds, the value of LD50 for each compounds was estimated from the lethal population observed on the basis of the Litchfield-Wilcoxon method.

[14] = Neuropharmacological multidimentional observation (modified Arwin and Smith method); assay type: in vivo, 4-weeks CD-1 (IRC) mice; conditions: intraperitoneal, 1 to 20 mg/kg, observed every 30 minutes for 180 minutes, compared with patterns of known medicines
Experimental: In this test, other pharmacological effects which may be obtained by these compounds were investigated.
Each compound of the invention was intraperitoneally administered to 4-weeks CD-1 (IRC) mice (Nippon Charles Liver K.K.) in the dose of 1 to 20 mg/kg with using mice groups consisting of three mice per group. […] The observation was carried out according to the modified Arwin method and Smith method, i.e., neuropharmacological multidimentional observation method.
Making a comparison between the symptom observed and the pattern of the pharmacological action due to the known medicines, it has been discovered that each compound of the invention has the following pharmacological effect.

[15] = system: Colon 26; assay: Colon 26 (ip-ip), survival T/C; assay type: in vivo
Experimental: as §1

CCCCCC(=O)Oc1ccc2cc1Oc1ccc(cc1)CC1C(=O)N(C)C(C2)C(=O)NC(C)C(=O)NC(C)C(=O)N(C)C(Cc2ccc(OC)cc2)C(=O)NC(C)C(=O)N1C (stereo not drawn) [Ex. 21, caproate of TPC-A]
L1210 (i.P. - i.P.) T/C (%) ([1]; Table 7, dose 0.5 mg/kg): 115.6%
L1210 (i.P. - i.P.) T/C (%) ([1]; Table 7, dose 2 mg/kg): 126.6%
L1210 (i.P. - i.P.) T/C (%) ([1]; Table 7, dose 10 mg/kg): 67.3%
T/C ([2]; 2 mg/kg × 5 days): 110.2%
T/C ([2]; 8 mg/kg × 5 days): 122.2%
Inhibition ([3]; 8 mg/kg × 11, after 14 days): 58.5%
T/C ([4]; 0.83 mg/kg × 9): 116.7%
T/C ([4]; 1.11 mg/kg × 9): 124.8%
effectiveness against MM2 ([5]; (see Table 7)): effective
mice continuing to live more than 60 days after implantation (60<) ([5]; Table 7, MM2 (i.P. - i.P.), dose 2 mg/kg): 2/6
MM2 (i.P. - i.P.) T/C (%) ([5]; Table 7, dose 0.5 mg/kg): 112.1%
MM2 (i.P. - i.P.) T/C (%) ([5]; Table 7, dose 2 mg/kg): 127.3%
MM2 (i.P. - i.P.) T/C (%) ([5]; Table 7, dose 10 mg/kg): 93.9%
T/C ([6]; 0.1 mg/kg × 5): 167.0%
T/C ([6]; 0.5 mg/kg × 5): 200.0%
T/C ([6]; 1 mg/kg × 5): 213.3%
animals living more than 30 days (30<) ([6]; 1 mg/kg × 5): 2/6
T/C ([6]; 2.5 mg/kg × 5): 167.0%
Inhibition ([7]; 0.5 mg/kg × 25, after 17 days): 24.3%
T/C ([8]; in combination: Mitomycin 0.5 mg/kg + Ex 21 0.5 mg/kg): 246.8%
T/C ([8]; in combination: Mitomycin 0.5 mg/kg + Ex 21 5 mg/kg): 270.3%
T/C % (Treatment/Control %) ([8]; dose 0.05 mg/kg): 133.6%
T/C % (Treatment/Control %) ([8]; dose 0.5 mg/kg): 143.2%
T/C % (Treatment/Control %) ([8]; dose 2 mg/kg): 151.6%
T/C % (Treatment/Control %) ([8]; dose 10 mg/kg): 197.2%
P388 (i.P. - i.P.) T/C (%) ([8]; Table 7, dose 0.01 mg/kg): 133.7%
P388 (i.P. - i.P.) T/C (%) ([8]; Table 7, dose 0.1 mg/kg): 135.9%
P388 (i.P. - i.P.) T/C (%) ([8]; Table 7, dose 2 mg/kg): 152.2%
T/C ([9]; 2 mg/kg × 9 times): 120.5%
T/C ([9]; 5 mg/kg × 9 times): 136.8%
T/C ([10]; 5.56 mg/kg × 9): 117.2%
T/C ([10]; 6.94 mg/kg × 9): 120.4%
effectiveness against B-16 melanoma ([11]; (see Table 7)): effective
B16 (i.P. - i.P.) T/C (%) ([11]; Table 7, dose 0.5 mg/kg): 143.5%
B16 (i.P. - i.P.) T/C (%) ([11]; Table 7, dose 2 mg/kg): 152.0%
B16 (i.P. - i.P.) T/C (%) ([11]; Table 7, dose 5 mg/kg): 165.5%

COc1ccc(C[C@H]2C(=O)N[C@@H](C)C(=O)N(C)[C@H]3Cc4ccc(cc4)Oc4cc(ccc4OC)C[C@@H](C(=O)N[C@H](C)C(=O)N[C@@H](C)C(=O)N2C)N(C)C3=O)cc1 [Methylether of TPC-A]
Inhibition [12]: 70.1%
L1210 (i.P. - i.P.) T/C (%) ([1]; Table 7, dose 0.01 mg/kg): 105.6%
L1210 (i.P. - i.P.) T/C (%) ([1]; Table 7, dose 0.5 mg/kg): 118.6%
L1210 (i.P. - i.P.) T/C (%) ([1]; Table 7, dose 1 mg/kg): 120.7%
L1210 (i.P. - i.P.) T/C (%) ([1]; Table 7, dose 2 mg/kg): 129.3%
L1210 (i.P. - i.P.) T/C (%) ([1]; Table 7, dose 5 mg/kg): 137.3%
Inhibition ([3]; 2 mg/kg × 11, after 14 days): 60.5%
LD50 and 95% Confidence Limit ([13]; intraperitoneal): 10.0(7.0-14.3) mg/kg
LD50 and 95% Confidence Limit ([13]; intravenous): 16.5(12.6-21.5) mg/kg
Pharmacological effect estinated [14]: emetic action; also recorded: anorexigenic action
MM2 (i.P. - i.P.) T/C (%) ([5]; Table 7, dose 0.2 mg/kg): 103.1%
MM2 (i.P. - i.P.) T/C (%) ([5]; Table 7, dose 1 mg/kg): 103.1%
MM2 (i.P. - i.P.) T/C (%) ([5]; Table 7, dose 2 mg/kg): 118.4%
MM2 (i.P. - i.P.) T/C (%) ([5]; Table 7, dose 5 mg/kg): 90.8%
Inhibition ([7]; 4 mg/kg × 11, after 17 days): 51.1%
T/C % (Treatment/Control %) ([8]; dose 0.01 mg/kg (printed in the 0.05 column with note "dose, 0.01")): 130.1%
T/C % (Treatment/Control %) ([8]; dose 0.5 mg/kg): 156.7%
T/C % (Treatment/Control %) ([8]; dose 2 mg/kg): 164.2%
T/C % (Treatment/Control %) ([8]; dose 4 mg/kg): 173.6%
P388 (i.P. - i.P.) T/C (%) ([8]; Table 7, dose 0.01 mg/kg): 130.1%
P388 (i.P. - i.P.) T/C (%) ([8]; Table 7, dose 0.5 mg/kg): 156.7%
P388 (i.P. - i.P.) T/C (%) ([8]; Table 7, dose 1 mg/kg): 159.9%
P388 (i.P. - i.P.) T/C (%) ([8]; Table 7, dose 2 mg/kg): 164.2%
P388 (i.P. - i.P.) T/C (%) ([8]; Table 7, dose 4 mg/kg): 173.6%
T/C ([15]; 1 mg/kg × 9): 113.6%
T/C ([15]; 2 mg/kg × 9): 125.0%
T/C ([15]; 4 mg/kg × 9): 125.9%
T/C ([10]; 0.56 mg/kg × 9): 115.7%
T/C ([10]; 2.22 mg/kg × 9): 160.8%
B16 (i.P. - i.P.) T/C (%) ([11]; Table 7, dose 0.25 mg/kg): 133.8%
B16 (i.P. - i.P.) T/C (%) ([11]; Table 7, dose 1 mg/kg): 135.3%
B16 (i.P. - i.P.) T/C (%) ([11]; Table 7, dose 2 mg/kg): 139.1%
B16 (i.P. - i.P.) T/C (%) ([11]; Table 7, dose 4 mg/kg): 143.0%
